The target in one assay is T1, HDAC-1 (Homo sapiens, UniProt Q13547).
T1 construct: made in house; host or cells: Sf9 or Sf21 insect cells (baculovirus, donor vector pFB-GSTX3)
The experiment in a line: HDAC Inhibition Assay (purified GST-HDAC protein). Format: biochemical. The source says: The baculovirus donor vector pFB-GSTX3 is used to generate a recombinant baculovirus that can express the HDAC polypeptide. Transfer vectors containing the HDAC coding region are transfected into the DH10Bac cell line (GIBCO) and plated on selective agar plates. Colonies without insertion of the fusion sequence into the viral genome (carried by the bacteria) are blue. Single, white colonies are picked and viral DNAs (bacmid) are isolated from the bacteria by standard plasmid purification procedures. Sf9 cells or Sf21 (American Type Culture Collection) cells are then transfected in […] flasks with the viral DNA using Cellfectin reagent.
Virus-containing media is collected from the transfected cell culture and used for infection to increase its titer. Virus-containing media obtained after two rounds of infection is used for large-scale protein expression. For large-scale protein expression 100 cm^2 round tissue culture plates are seeded with 5×10^7 cells/plate and infected with 1 mL of virus-containing media (at an approximately MOI of 5). After 3 days, the cells are scraped off the plate and centrifuged at 500 rpm for 5 minutes. Cell pellets from 10-20, 100 cm^2 plates, are re-suspended in 50 mL of ice-cold lysis buffer (25 mM tris-HCl, pH 7.5, 2 mM EDTA, 1% NP-40, 1 mM DTT, 1 mM P MSF). The cells are stirred on ice for 15 minutes and then centrifuged at 5,000 rpms for 20 minutes.
The centrifuged cell lysate is loaded onto a 2 mL glutathione-sepharose column (Pharmacia) and is washed thrice with 10 mL of 25 mM tris-HCl, pH 7.5, 2 mM EDTA, 1 mM DTT, 200 mM NaCl. The GST-tagged proteins are then eluted by 10 applications (1 mL each) of 25 mM tris-HCl, pH 7.5, 10 mM reduced-glutathione, 100 mM NaCl, 1 mM DTT, 10% glycerol and stored at −70° C.
HDAC assays with purified GST-HDAC protein are carried out in a final volume of 30 μL containing 15 ng of GST-HDAC protein, 20 mM tris-HCl, pH 7.5, 1 mM MnCl2, 10 mM MgCl2, 1 mM DTT, 3 μg/mL poly(Glu,Tyr) 4:1, 1% DMSO, 2.0 μM ATP (γ-[^33P]-ATP 0.1 μCi). The activity is assayed in the presence or absence of inhibitors. […] Subsequently, […] of the reaction mixture are transferred onto EMMOBILON-PVDF membrane (Millipore) previously soaked for 5 minutes with methanol, rinsed with water, then soaked for 5 minutes with 0.5% H3PO4 and mounted on vacuum manifold with disconnected vacuum source. After spotting all samples, a vacuum is connected and each well rinsed with 200 μL 0.5% H3PO4. Membranes are removed and washed four times on a shaker with 1.0% H3PO4, once with ethanol. Membranes are counted after drying at ambient temperature, mounting in Packard TopCount 96-well frame, and addition of 10 μL/well of MICROSCINT™ (Packard).
• Input: 3×4 μL stopped assay on IMMOBILON membrane, not washed • Background (3 wells): assay with H2O instead of enzyme • Positive control (4 wells): 3% DMSO instead of compound • Bath control (1 well): no reaction mix
In each experiment, the actual inhibition by reference compound is used for normalization of IC50 values to the basis of an average value of the reference inhibitor:
Normalized IC50=measured IC50 average ref. IC50/measured ref. IC50

A further assay concerns HCT116. The experiment in a line: HCT116 IC50. The format is cell-based. Conditions: Homo sapiens, HCT-116.

pIC50: −log10 of the molar value.

In general, pIC50 refers to the IC50 on a negative log10 scale, so that one unit is a factor of ten. Read a high pIC50 as a low IC50.

T1 sequence (Q13547 whole entry, species assumed): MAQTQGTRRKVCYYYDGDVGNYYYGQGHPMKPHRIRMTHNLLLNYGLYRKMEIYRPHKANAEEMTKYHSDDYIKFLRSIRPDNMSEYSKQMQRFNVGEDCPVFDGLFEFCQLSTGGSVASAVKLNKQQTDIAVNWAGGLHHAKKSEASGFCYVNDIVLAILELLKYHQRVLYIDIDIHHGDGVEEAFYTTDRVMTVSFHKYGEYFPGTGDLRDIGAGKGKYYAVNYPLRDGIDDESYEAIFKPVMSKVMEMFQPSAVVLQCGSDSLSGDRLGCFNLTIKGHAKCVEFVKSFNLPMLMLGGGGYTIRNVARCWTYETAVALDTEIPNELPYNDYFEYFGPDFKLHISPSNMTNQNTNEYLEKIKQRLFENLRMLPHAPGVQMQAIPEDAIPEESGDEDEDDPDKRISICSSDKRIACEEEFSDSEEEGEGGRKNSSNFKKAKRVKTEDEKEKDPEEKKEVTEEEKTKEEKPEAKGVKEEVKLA

`O=C(/C=C/c1ccc(CN2CCCC(c3c[nH]c4ccccc34)C2)cc1)NO` (stereo not drawn) [Compound 2, (E)-N-Hydroxy-3-{4-[3-(1H-indol-3-yl)-piperidin-1-ylmethyl]-phenyl}-acrylamide]: the pIC50 against HDAC-1 was 8.05; in the assay with HCT116 it was 7.49.
For `Cc1[nH]c2ccccc2c1[C@H]1CCCN(Cc2ccc(/C=C/C(=O)NO)cc2)C1` [Compound 3, (E)-N-Hydroxy-3-{4-[(R)-3-(2-methyl-1H-indol-3-yl)-piperidin-1-ylmethyl]-phenyl}-acrylamide], the figures for the pIC50 at HDAC-1 and in the assay on HCT116 were 8.22 and 7.92, respectively.
Taken in the same sequence, the figures for `Cc1[nH]c2ccc(N3CCOCC3)cc2c1C1CCCN(Cc2ccc(/C=C/C(=O)NO)cc2F)C1` (stereo not drawn) [Compound 4, (E)-3-{3-Fluoro-4-[3-(2-methyl-5-morpholin-4-yl-1H-indol-3-yl)-piperidin-1-ylmethyl]-phenyl}-N-hydroxy-acrylamide] were 7.96 and 7.89.
Taken in the same sequence, the figures for `O=C(/C=C/c1ccc(CN2CCCC(c3c(-c4ccccc4)[nH]c4ccccc34)C2)cc1)NO` (stereo not drawn) [Compound 5, (E)-N-Hydroxy-3-{4-[3-(2-phenyl-1H-indol-3-yl)-piperidin-1-ylmethyl]-phenyl}-acrylamide] were 8.22 and 8.68.
Take `CC(C)(C)c1[nH]c2ccccc2c1C1CCCN(Cc2ccc(/C=C/C(=O)NO)cc2)C1` (stereo not drawn) [Compound 6, (E)-3-{4-[3-(2-tert-Butyl-1H-indol-3-yl)-piperidin-1-ylmethyl]-phenyl}-N-hydroxy-acrylamide]: the pIC50 was 8.52 at HDAC-1 and 9.52 in the assay on HCT116.
Turning to `CC(C)(C)c1[nH]c2ccccc2c1C1=CCCN(Cc2ccc(/C=C/C(=O)NO)cc2)C1` [Compound 7, (E)-3-{4-[5-(2-tert-Butyl-1H-indol-3-yl)-3,6-dihydro-2H-pyridin-1-ylmethyl]-phenyl}-N-hydroxy-acrylamide], the pIC50 was 8.05 at HDAC-1 and 7.92 with HCT116.
Taken in the same sequence, the figures for `Cc1[nH]c2ccccc2c1C1C/C(=N/O)CN(Cc2ccc(/C=C/C(=O)NO)cc2)C1` (stereo not drawn) [Compound 8, (E)-N-Hydroxy-3-{4-[3-[(Z)-hydroxyimino]-5-(2-methyl-1H-indol-3-yl)-piperidin-1-ylmethyl]-phenyl}-acrylamide] were 7.77 and 6.52.
For `O=C(/C=C/c1ccc(CN2CCCC(C3C(=O)Nc4ccccc43)C2)cc1)NO` (stereo not drawn) [Compound 9, (E)-N-Hydroxy-3-{4-[3-(2-oxo-2,3-dihydro-1H-indol-3-yl)-piperidin-1-ylmethyl]-phenyl}-acrylamide], the pIC50 at HDAC-1 is 8.10; with HCT116 it was 7.32.
In the assay on HCT116, `CC(C)(C)c1[nH]c2ccccc2c1[C@@H]1CCCN(Cc2ccc(/C=C/C(=O)NO)cc2F)C1` [Compound 11, (E)-3-{4-[(S)-3-(2-tert-Butyl-1H-indol-3-yl)-piperidin-1-ylmethyl]-3-fluoro-phenyl}-N-hydroxy-acrylamide] had a negative logarithm of the IC50 (pIC50) of 9.10.
For the compound `CC(C)(C)c1[nH]c2ccccc2c1C1CCCN(Cc2ccc(/C=C/C(=O)NO)cc2Cl)C1` (stereo not drawn) [Compound 12, (E)-3-{4-[3-(2-tert-Butyl-1H-indol-3-yl)-piperidin-1-ylmethyl]-3-chloro-phenyl}-N-hydroxy-acrylamide], the pIC50 was 7.72 at HDAC-1 and 8.30 in the assay on HCT116.
Taken in the same sequence, the figures for `CC(C)(O)c1[nH]c2ccccc2c1C1CCCN(Cc2ccc(/C=C/C(=O)NO)cc2F)C1` (stereo not drawn) [Compound 13, (E)-3-(3-Fluoro-4-{3-[2-(1-hydroxy-1-methyl-ethyl)-1H-indol-3-yl]-piperidin-1-ylmethyl}-phenyl)-N-hydroxy-acrylamide] were 8.22 and 8.55.
For the compound `C=C(C)c1[nH]c2ccccc2c1C1CCCN(Cc2ccc(/C=C/C(=O)NO)cc2F)C1` (stereo not drawn) [Compound 14, (E)-3-{3-Fluoro-4-[3-(2-isopropenyl-1H-indol-3-yl)-piperidin-1-ylmethyl]-phenyl}-N-hydroxy-acrylamide], the pIC50 is 8.15 on HDAC-1 and 8.22 in the assay with HCT116.
Taken in the same sequence, the figures for `O=C(/C=C/c1ccc(CN2CCCC(c3c(-c4ccccc4)[nH]c4ccccc34)C2)c(F)c1)NO` (stereo not drawn) [Compound 15, (E)-3-{3-Fluoro-4-[3-(2-phenyl-1H-indol-3-yl)-piperidin-1-ylmethyl]-phenyl}-N-hydroxy-acrylamide] were 7.96 and 8.28.
Taken in the same sequence, the figures for `CCOC(=O)c1[nH]c2ccccc2c1C1CCCN(Cc2ccc(/C=C/C(=O)NO)cc2F)C1` (stereo not drawn) [Compound 17, 3-{1-[2-Fluoro-4-((E)-2-hydroxycarbamoyl-vinyl)-benzyl]-piperidin-3-yl}-1H-indole-2-carboxylic acid ethyl ester] were 7.36 and 7.85.
As for `O=C(/C=C/c1ccc(CN2CCCC(c3c(C(=O)NO)[nH]c4ccccc34)C2)c(F)c1)NO` (stereo not drawn) [Compound 18, 3-{1-[2-Fluoro-4-((E)-2-hydroxycarbamoyl-vinyl)-benzyl]-piperidin-3-yl}-1H-indole-2-carboxylic acid hydroxyamide], the pIC50 on HDAC-1 was 7.51; in the assay on HCT116, 7.43.
As to `O=C(/C=C/c1ccc(CN2CCCC(c3c(C(=O)N4CCOCC4)[nH]c4ccccc34)C2)c(F)c1)NO` (stereo not drawn) [Compound 19, (E)-3-(3-Fluoro-4-{3-[2-(morpholine-4-carbonyl)-1H-indol-3-yl]-piperidin-1-ylmethyl}-phenyl)-N-hydroxy-acrylamide], the pIC50 was 7.66 against HDAC-1 and 6.30 in the assay with HCT116.
The compound `O=C(/C=C/c1ccc(CN2CCN(C(=O)C3CCCCC3)CC2)cc1)NO` [Compound 54, (E)-3-[4-(4-Cyclohexanecarbonyl-piperazin-1-ylmethyl)-phenyl]-N-hydroxy-acrylamide] had a pIC50 against HDAC-1 of 6.89.
In turn, `Cc1ccc(S(=O)(=O)N2CCN(Cc3ccc(/C=C/C(=O)NO)cc3)CC2)cc1` [Compound 55, (E)-N-Hydroxy-3-{4-[4-(toluene-4-sulfonyl)-piperazin-1-ylmethyl]-phenyl}-acrylamide] showed a pIC50 at HDAC-1 of 6.64.
On HDAC-1, `Cc1cccc(S(=O)(=O)N2CCN(Cc3ccc(/C=C/C(=O)NO)cc3)CC2)c1` [Compound 56, (E)-N-Hydroxy-3-{4-[4-(toluene-3-sulfonyl)-piperazin-1-ylmethyl]-phenyl}-acrylamide] gave a pIC50 of 6.59.
As to `O=C(/C=C/c1ccc(CN2CCN(S(=O)(=O)c3ccc(F)cc3)CC2)cc1)NO` [Compound 57, (E)-3-{4-[4-(4-Fluoro-benzenesulfonyl)-piperazin-1-ylmethyl]-phenyl}-N-hydroxy-acrylamide], the pIC50 on HDAC-1 is 6.59.
On HDAC-1, `O=C(/C=C/c1ccc(CN2CCN(S(=O)(=O)c3ccccc3)c3ccccc32)cc1)NO` [Compound 58, (E)-3-[4-(4-Benzenesulfonyl-3,4-dihydro-2H-quinoxalin-1-ylmethyl)-phenyl]-N-hydroxy-acrylamide] gave a pIC50 of 6.54.
On the same count and under the same terms, the figure for `O=C(/C=C/c1ccc(CN2CCN(C(=O)Nc3ccccc3)c3ccccc32)cc1)NO` [Compound 59, 4-[4-((E)-2-Hydroxycarbamoyl-vinyl)-benzyl]-3,4-dihydro-2H-quinoxaline-1-carboxylic acid phenylamide] is 6.49; for `O=C(/C=C/c1ccc(CN2CCN(C(=O)C3CCCCC3)c3ccccc32)cc1)NO` [Compound 60, (E)-3-[4-(4-Cyclohexanecarbonyl-3,4-dihydro-2H-quinoxalin-1-ylmethyl)-phenyl]-N-hydroxy-acrylamide] it is 6.66.
The same measure, in the same setting: under `O=C(/C=C/c1ccc(CN2CCN(C(=O)NCc3ccccc3)c3ccccc32)cc1)NO` [Compound 61, 4-[4-((E)-2-Hydroxycarbamoyl-vinyl)-benzyl]-3,4-dihydro-2H-quinoxaline-l-carboxylic acid benzylamide] stands 6.60.

For the origin of these results see patent US20110053925A1, “Hydroxamate-Based Inhibitors of Deacetylases” (Novartis AG, priority 2009, published 2011).
